Experimental data published in ChEMBL document CHEMBL1201862, “PubChem BioAssay data set” (2004).
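Method: 48-hour compound exposure of cells in 96-well plates, five concentrations, linear interpolation of endpoints. At the GI50, growth is halved.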 Active and inactive are the calls of the source. No stated cut-off is given here; in the data, active = GI50 up to about 1.1 µM and inactive = higher.

Tests used:
Assay in all cases: NCI tumour cell line growth inhibition, 48 h
[1] = tested on: MCF7
[2] = tested on: KM12
[3] = tested on: UACC-257
[4] = tested on: HOP-92
[5] = tested on: A549
[6] = tested on: RPMI-8226
[7] = tested on: NCI-H460
[8] = tested on: UO-31
[9] = tested on: HCC 2998
[10] = tested on: NCI/ADR-RES
[11] = tested on: SNB-19
[12] = tested on: ACHN
[13] = tested on: EKVX
[14] = tested on: SF-295
[15] = tested on: T47D
[16] = tested on: TK-10
[17] = tested on: SK-MEL-5
[18] = tested on: NCI-H23
[19] = tested on: LXFL 529

Measured: GI50

CC(C)O/N=C/c1cc(NC(=S)OC(C)C)ccc1Cl
inactive: [1] 23.5 µM | [2] 50.9 µM | [3] > 100 µM | [4] > 44.2 µM | [5] 35.4 µM | [6] 13.8 µM | [7] 42.3 µM | [8] 21.7 µM | [9] 45.2 µM | [10] 35.5 µM | [11] > 54.8 µM | [12] 35.2 µM | [13] 19.1 µM | [14] 25.2 µM | [15] 34.3 µM | [16] > 58.6 µM | [17] 23 µM | [18] 43.9 µM

NS(=O)(=O)c1ccc(N=C2C(=O)Nc3ccccc32)cc1
inactive: [1] 90.2 µM | [2] > 100 µM | [3] > 100 µM | [4] > 100 µM | [5] > 100 µM | [6] > 100 µM | [7] > 100 µM | [8] > 100 µM | [9] > 100 µM | [10] > 100 µM | [11] > 100 µM | [12] > 100 µM | [13] > 100 µM | [14] > 100 µM | [15] > 100 µM | [16] > 100 µM | [17] 36.8 µM | [18] > 100 µM

COC(=O)C[C@H]1CCC2(OCCO2)[C@]1(C)C(=O)OC
inactive: [2] > 100 µM | [3] > 100 µM | [4] > 100 µM | [5] > 100 µM | [19] > 100 µM | [6] > 100 µM | [7] > 100 µM | [8] > 100 µM | [11] > 100 µM | [12] > 100 µM | [13] > 100 µM | [14] > 100 µM | [16] > 100 µM | [17] > 100 µM | [18] > 100 µM

CN(COC(=O)c1ccccc1)c1nc(N(C)COC(=O)c2ccccc2)nc(N(C)COC(=O)c2ccccc2)n1
inactive: [1] > 71.9 µM | [2] > 100 µM | [3] > 91.4 µM | [4] 13.1 µM | [5] > 100 µM | [6] > 100 µM | [7] > 69.5 µM | [8] > 83.9 µM | [9] > 100 µM | [10] 50.1 µM | [11] 16.5 µM | [12] 21.2 µM | [13] > 83.6 µM | [14] 23.9 µM | [15] 28.8 µM | [16] 20.3 µM | [17] > 100 µM | [18] 41.5 µM

COc1ccccc1C(O)[C@@H]1C[C@@H]2[C@H]3CC[C@@](C)([C@@H]2O1)C3(C)C (stereo partly specified)
inactive: [1] 19 µM | [2] 20.8 µM | [3] 20.3 µM | [4] 15.8 µM | [5] 21.2 µM | [6] 25.2 µM | [7] 19.5 µM | [8] 17.9 µM | [9] 20.8 µM | [10] 17.5 µM | [11] 22.8 µM | [12] 19.1 µM | [13] 45.2 µM | [14] 18.4 µM | [15] 16.4 µM | [16] 21.8 µM | [17] 17.3 µM | [18] 19.5 µM

CCCCOC(=O)C(=O)C(CCC(=O)c1ccc(C)cc1)C(=O)C=C(C)C (stereo unspecified)
inactive: [1] > 100 µM | [2] > 100 µM | [3] > 100 µM | [4] > 100 µM | [5] > 100 µM | [6] > 100 µM | [7] > 100 µM | [8] > 100 µM | [9] > 100 µM | [10] > 100 µM | [11] 52.7 µM | [12] > 100 µM | [13] > 100 µM | [14] > 100 µM | [15] > 100 µM | [16] > 100 µM | [17] > 100 µM | [18] > 100 µM

Cc1ccc(NC(c2ccccc2)P(=O)(c2ccccc2)c2ccccc2)cc1 (stereo unspecified)
inactive: [1] > 100 µM | [2] > 100 µM | [3] > 100 µM | [4] 27.2 µM | [5] > 100 µM | [6] > 100 µM | [7] > 100 µM | [8] > 100 µM | [9] > 100 µM | [10] > 100 µM | [11] 53.7 µM | [12] 63.7 µM | [13] > 100 µM | [14] 29.9 µM | [15] > 100 µM | [16] > 100 µM | [17] > 100 µM | [18] > 100 µM

CNC(=S)NN=C1NCCCN1
inactive: [1] > 100 µM | [2] > 100 µM | [3] > 100 µM | [4] > 100 µM | [5] > 100 µM | [6] > 100 µM | [7] > 100 µM | [8] > 100 µM | [9] > 100 µM | [10] > 100 µM | [11] > 100 µM | [12] > 100 µM | [13] > 100 µM | [14] > 100 µM | [15] > 100 µM | [16] > 100 µM | [17] > 100 µM | [18] > 100 µM

N#CC(NNC(=O)Cc1ccccc1)c1ccccc1O (stereo unspecified)
inactive: [1] 10.2 µM | [2] 11.6 µM | [3] 14 µM | [4] 23.3 µM | [5] 10.3 µM | [19] 15.2 µM | [6] 6.87 µM | [7] 6.84 µM | [8] 4.54 µM | [9] 12.7 µM | [10] 3.93 µM | [11] 21.3 µM | [12] 6.56 µM | [13] 8.41 µM | [14] 9.68 µM | [15] 2.62 µM | [16] 24.2 µM | [17] 10.6 µM | [18] 9.23 µM

CN(C)CCNC1=CC(=O)c2c(O)ccc(O)c2C1=O
inactive: [1] 2.49 µM | [2] 6.35 µM | [3] 2.36 µM | [4] 14.2 µM | [5] 10.1 µM | [6] 7.52 µM | [7] 3.3 µM | [8] 12.4 µM | [9] 3.88 µM | [10] 2.58 µM | [11] 16 µM | [12] 11.5 µM | [13] 12.8 µM | [14] 11.4 µM | [15] 9.66 µM | [16] 14.4 µM | [17] 1.67 µM | [18] 4.98 µM

NCS(=O)(=O)O
inactive: [1] > 100 µM | [2] > 100 µM | [3] > 100 µM | [4] > 100 µM | [5] > 100 µM | [6] > 100 µM | [7] 35.2 µM | [8] > 100 µM | [9] > 100 µM | [10] > 100 µM | [11] > 100 µM | [12] > 100 µM | [13] > 100 µM | [14] > 100 µM | [15] > 100 µM | [16] > 100 µM | [17] > 100 µM | [18] > 100 µM
